# Measurements from PMC6757289, “Design and Characterization of SGK3-PROTAC1, an Isoform Specific SGK3 Kinase PROTAC Degrader” (ACS Chemical Biology, 2019).
# Like-named read-outs stand apart in the source and are kept apart here.
# Legend:
# Test in all cases: kinase profiling panel
# Format in all cases: biochemical
# Conditions in all cases: read-out: % Activity Remaining
# ABL = ABL (Homo sapiens, UniProt P00519)
# Excerpt: (§1) Protein kinase profiling against a Dundee panel of 140 protein kinases was undertaken at the International Centre for Protein Kinase Profiling. The result for each kinase was presented as a mean kinase activity of the reaction taken in triplicate relative to a control sample treated with DMSO. Assay conditions and abbreviations are available at http://www.kinase-screen.mrc.ac.uk.
# BRSK1 = target: T1, BRSK1 (Homo sapiens, UniProt Q8TDC3)
# T1 sequence (Q8TDC3 1-778): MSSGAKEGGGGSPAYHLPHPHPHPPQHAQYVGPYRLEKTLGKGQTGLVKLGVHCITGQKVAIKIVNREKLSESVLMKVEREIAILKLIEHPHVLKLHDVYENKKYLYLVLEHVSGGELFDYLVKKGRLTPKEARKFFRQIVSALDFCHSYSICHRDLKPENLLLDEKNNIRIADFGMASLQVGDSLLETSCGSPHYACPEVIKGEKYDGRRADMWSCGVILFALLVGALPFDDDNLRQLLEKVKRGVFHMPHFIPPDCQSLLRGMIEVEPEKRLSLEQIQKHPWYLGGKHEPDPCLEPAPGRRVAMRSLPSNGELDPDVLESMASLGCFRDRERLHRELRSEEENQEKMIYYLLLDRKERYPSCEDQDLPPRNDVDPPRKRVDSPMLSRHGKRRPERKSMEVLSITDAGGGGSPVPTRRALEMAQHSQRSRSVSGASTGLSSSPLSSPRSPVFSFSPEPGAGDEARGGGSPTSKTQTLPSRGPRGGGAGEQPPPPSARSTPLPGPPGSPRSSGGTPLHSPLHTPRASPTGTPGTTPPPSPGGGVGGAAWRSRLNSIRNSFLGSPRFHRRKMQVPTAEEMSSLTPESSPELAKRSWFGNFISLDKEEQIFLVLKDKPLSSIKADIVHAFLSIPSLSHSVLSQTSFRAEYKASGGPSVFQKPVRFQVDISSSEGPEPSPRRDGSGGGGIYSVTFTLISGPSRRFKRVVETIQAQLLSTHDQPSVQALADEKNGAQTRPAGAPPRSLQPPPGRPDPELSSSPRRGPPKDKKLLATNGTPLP
# Excerpt: as §1
# BRSK2 = target: T2, BRSK2 (Homo sapiens, UniProt Q8IWQ3)
# T2 sequence (Q8IWQ3 1-736): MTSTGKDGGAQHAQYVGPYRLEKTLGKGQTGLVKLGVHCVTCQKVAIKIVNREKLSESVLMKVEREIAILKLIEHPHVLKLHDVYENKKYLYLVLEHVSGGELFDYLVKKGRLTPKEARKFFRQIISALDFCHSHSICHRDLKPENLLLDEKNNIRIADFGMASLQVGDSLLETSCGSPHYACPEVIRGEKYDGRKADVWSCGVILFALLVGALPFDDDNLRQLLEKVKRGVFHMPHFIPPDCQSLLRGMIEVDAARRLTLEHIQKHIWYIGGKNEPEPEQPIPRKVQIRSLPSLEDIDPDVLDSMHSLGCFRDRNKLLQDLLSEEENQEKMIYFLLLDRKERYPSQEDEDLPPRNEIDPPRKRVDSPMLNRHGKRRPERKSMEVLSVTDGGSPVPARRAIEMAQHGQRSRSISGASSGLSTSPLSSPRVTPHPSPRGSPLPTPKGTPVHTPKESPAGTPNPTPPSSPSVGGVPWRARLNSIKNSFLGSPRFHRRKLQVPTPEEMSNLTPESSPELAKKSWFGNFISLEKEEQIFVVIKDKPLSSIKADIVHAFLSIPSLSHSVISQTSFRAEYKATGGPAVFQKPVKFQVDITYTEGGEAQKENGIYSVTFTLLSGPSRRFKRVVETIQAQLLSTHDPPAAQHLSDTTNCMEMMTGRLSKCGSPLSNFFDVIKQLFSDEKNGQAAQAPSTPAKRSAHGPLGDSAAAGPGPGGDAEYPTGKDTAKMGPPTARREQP
# Excerpt: as §1
# CDK9-Cyclin T1 = CDK9-Cyclin T1 (Homo sapiens, UniProt P50750)
# Excerpt: as §1
# MKK1 = MKK1 (Homo sapiens, UniProt Q02750)
# Excerpt: as §1
# RIPK2 = RIPK2 (Homo sapiens, UniProt O43353)
# Excerpt: as §1
# ROCK 2 = ROCK 2 (Homo sapiens, UniProt O75116)
# Excerpt: as §1
# TGFBR1 = target: T3, TGFBR1 (Homo sapiens, UniProt P36897)
# T3 sequence (P36897 34-503): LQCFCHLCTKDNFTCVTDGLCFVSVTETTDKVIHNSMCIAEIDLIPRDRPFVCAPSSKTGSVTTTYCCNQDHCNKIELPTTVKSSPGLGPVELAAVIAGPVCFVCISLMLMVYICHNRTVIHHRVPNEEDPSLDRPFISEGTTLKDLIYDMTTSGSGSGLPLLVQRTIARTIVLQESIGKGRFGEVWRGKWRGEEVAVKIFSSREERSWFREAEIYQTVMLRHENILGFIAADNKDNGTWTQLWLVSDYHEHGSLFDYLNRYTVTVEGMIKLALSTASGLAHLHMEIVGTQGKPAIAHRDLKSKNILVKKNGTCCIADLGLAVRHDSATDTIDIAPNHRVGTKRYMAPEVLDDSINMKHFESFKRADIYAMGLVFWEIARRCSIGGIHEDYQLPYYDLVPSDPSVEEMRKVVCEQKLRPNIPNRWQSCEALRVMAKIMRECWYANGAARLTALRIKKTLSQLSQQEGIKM
# Excerpt: as §1
# Sequence of ABL (P00519 whole entry): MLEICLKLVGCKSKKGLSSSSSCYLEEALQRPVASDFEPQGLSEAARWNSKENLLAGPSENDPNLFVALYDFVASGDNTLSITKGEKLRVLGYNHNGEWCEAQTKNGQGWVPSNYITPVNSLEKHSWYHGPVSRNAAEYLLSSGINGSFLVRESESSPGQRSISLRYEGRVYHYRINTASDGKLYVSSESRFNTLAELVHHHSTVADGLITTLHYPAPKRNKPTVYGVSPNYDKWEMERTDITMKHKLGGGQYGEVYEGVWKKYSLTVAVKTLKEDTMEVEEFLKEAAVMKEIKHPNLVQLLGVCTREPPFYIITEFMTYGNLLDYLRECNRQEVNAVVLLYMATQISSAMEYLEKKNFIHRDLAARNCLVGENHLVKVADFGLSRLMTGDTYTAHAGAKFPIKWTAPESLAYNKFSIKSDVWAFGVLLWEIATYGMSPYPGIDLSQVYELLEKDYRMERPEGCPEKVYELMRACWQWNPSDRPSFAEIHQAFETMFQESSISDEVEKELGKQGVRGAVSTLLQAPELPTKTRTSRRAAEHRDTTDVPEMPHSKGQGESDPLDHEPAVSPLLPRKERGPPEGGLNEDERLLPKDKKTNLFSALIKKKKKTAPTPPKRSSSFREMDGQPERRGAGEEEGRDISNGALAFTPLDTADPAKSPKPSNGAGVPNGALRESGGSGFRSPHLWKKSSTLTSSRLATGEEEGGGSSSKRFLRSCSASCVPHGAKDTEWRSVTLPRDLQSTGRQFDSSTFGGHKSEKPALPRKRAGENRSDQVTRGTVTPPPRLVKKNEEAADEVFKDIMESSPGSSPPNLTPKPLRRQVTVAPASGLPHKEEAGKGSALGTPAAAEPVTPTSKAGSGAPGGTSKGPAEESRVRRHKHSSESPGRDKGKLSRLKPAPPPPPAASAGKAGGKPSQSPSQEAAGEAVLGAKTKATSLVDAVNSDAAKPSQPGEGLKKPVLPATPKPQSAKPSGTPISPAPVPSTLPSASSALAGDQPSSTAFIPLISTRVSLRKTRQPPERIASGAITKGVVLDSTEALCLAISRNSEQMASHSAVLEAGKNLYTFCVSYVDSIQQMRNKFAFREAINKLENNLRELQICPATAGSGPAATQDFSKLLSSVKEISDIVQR
# Sequence of ROCK 2 (O75116 whole entry): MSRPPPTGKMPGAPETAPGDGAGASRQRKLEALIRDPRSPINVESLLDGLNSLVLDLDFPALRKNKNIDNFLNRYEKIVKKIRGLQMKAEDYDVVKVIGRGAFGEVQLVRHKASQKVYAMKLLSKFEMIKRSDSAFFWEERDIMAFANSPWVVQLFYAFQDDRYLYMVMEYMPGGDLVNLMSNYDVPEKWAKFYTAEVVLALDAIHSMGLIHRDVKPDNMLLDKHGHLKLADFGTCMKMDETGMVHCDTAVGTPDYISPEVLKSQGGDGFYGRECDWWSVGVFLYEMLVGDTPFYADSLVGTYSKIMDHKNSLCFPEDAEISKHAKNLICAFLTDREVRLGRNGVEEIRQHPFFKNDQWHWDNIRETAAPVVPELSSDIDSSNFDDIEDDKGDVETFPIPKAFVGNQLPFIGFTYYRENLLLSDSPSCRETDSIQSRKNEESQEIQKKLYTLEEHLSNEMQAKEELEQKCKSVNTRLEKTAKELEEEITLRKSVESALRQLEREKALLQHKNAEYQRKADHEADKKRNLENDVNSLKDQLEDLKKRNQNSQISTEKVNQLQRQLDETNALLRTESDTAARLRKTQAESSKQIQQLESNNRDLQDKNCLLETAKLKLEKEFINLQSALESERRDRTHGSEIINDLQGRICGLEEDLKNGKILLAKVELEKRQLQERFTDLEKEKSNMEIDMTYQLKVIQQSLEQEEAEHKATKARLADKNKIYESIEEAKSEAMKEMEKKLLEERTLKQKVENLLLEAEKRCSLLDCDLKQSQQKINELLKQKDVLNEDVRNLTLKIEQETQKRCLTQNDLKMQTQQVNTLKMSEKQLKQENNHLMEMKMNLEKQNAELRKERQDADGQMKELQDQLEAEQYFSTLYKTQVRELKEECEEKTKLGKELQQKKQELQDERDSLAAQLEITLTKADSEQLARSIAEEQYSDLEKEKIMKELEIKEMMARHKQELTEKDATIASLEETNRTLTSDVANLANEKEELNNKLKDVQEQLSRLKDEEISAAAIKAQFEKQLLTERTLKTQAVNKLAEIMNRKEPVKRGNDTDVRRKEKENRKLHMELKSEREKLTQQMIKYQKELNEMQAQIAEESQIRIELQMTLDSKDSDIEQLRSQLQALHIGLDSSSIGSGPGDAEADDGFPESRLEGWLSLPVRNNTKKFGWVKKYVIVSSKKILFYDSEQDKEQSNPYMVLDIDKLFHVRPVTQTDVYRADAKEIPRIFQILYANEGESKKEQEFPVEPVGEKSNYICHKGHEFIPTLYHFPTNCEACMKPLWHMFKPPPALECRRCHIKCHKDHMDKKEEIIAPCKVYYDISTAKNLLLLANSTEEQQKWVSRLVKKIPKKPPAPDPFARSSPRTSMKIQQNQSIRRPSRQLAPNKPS
# Sequence of MKK1 (Q02750 whole entry): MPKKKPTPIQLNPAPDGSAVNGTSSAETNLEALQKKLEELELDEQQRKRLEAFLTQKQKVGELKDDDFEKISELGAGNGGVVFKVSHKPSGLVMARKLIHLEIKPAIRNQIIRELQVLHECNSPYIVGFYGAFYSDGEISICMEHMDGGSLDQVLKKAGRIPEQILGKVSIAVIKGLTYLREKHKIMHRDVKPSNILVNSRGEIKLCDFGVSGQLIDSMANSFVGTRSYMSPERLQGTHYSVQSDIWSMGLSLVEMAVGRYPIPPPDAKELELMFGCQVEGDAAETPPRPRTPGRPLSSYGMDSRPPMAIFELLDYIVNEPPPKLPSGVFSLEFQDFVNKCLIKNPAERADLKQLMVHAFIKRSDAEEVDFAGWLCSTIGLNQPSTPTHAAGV
# Sequence of CDK9-Cyclin T1 (P50750 whole entry): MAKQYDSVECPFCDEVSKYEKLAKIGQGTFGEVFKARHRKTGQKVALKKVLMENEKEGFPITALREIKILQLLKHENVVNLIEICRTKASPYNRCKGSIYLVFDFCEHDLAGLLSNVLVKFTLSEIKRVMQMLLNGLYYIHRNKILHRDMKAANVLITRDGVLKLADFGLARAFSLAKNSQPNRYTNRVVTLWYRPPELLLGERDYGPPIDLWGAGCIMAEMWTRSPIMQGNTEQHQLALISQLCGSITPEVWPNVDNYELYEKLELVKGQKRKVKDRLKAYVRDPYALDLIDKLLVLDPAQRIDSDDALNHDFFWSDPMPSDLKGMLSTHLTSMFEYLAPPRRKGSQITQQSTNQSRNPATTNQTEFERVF
# Sequence of CDK9-Cyclin T1 (O60563 whole entry partner): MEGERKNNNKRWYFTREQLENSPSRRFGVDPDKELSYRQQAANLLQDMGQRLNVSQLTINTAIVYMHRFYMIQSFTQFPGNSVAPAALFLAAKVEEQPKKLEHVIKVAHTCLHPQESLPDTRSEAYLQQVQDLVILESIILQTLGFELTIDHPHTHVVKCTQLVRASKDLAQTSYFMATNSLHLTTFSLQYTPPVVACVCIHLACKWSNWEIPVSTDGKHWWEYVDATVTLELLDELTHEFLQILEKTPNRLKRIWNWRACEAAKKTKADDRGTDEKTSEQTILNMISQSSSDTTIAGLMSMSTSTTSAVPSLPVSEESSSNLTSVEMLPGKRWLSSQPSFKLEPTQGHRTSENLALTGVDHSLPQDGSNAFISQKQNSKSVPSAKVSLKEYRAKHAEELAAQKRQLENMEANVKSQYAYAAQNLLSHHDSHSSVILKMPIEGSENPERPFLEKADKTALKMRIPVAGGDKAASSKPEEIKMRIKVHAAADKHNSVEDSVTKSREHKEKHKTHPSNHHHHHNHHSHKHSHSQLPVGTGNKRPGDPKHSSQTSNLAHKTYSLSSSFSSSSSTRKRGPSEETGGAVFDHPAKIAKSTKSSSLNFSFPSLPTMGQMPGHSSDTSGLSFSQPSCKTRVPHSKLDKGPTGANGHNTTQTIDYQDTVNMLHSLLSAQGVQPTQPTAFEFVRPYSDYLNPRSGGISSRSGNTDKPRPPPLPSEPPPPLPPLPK
# Sequence of RIPK2 (O43353 whole entry): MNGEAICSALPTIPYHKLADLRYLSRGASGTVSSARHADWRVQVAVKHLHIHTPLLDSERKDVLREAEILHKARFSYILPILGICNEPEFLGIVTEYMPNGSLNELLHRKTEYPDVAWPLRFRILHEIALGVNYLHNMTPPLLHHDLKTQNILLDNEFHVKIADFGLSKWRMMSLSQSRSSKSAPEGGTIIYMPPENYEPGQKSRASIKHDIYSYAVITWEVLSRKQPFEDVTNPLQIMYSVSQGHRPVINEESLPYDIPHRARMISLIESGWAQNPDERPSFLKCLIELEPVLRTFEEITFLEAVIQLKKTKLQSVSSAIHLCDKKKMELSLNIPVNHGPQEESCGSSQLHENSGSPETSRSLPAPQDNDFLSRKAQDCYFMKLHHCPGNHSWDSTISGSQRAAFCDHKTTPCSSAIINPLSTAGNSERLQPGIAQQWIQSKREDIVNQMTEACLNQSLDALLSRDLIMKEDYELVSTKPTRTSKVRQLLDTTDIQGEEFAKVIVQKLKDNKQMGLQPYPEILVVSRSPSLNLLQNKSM
compound,measurement,setting,value
"COc1ccc(Cl)c(S(=O)(=O)Nc2ccc(-c3nc(OC[C@H]4CNCCO4)c4c(C)n[nH]c4n3)cc2)c1 [290-R, reference compound]",remaining activity at 1 µM,ABL,88%
same,remaining activity at 1 µM,BRSK1,95%
same,remaining activity at 1 µM,BRSK2,102%
same,remaining activity at 1 µM,CDK9-Cyclin T1,105%
same,remaining activity at 1 µM,MKK1,66%
same,remaining activity at 1 µM,RIPK2,124%
same,remaining activity at 1 µM,ROCK 2,105%
same,remaining activity at 1 µM,TGFBR1,120%
"Cc1ccc(F)c(S(=O)(=O)Nc2ccc(-c3nc(OC[C@H]4CNCCO4)c4cn[nH]c4n3)cc2)c1 [308-R, reference compound]",remaining activity at 1 µM,ABL,96%
same,remaining activity at 1 µM,BRSK1,106%
same,remaining activity at 1 µM,BRSK2,82%
same,remaining activity at 1 µM,CDK9-Cyclin T1,63%
same,remaining activity at 1 µM,MKK1,62%
same,remaining activity at 1 µM,RIPK2,122%
same,remaining activity at 1 µM,ROCK 2,74%
same,remaining activity at 1 µM,TGFBR1,120%
Cc1ccc(F)c(S(=O)(=O)Nc2ccc(-c3nc(OC[C@H]4CN(CCCCCCOCCOCCOCC(=O)N[C@H](C(=O)N5C[C@H](O)C[C@H]5C(=O)NCc5ccc(-c6scnc6C)cc5)C(C)(C)C)CCO4)c4cn[nH]c4n3)cc2)c1 [SGK3-PROTAC1],remaining activity at 1 µM,ABL; 1 µM,111%
same,remaining activity at 1 µM,BRSK1; 1 µM,108%
same,remaining activity at 1 µM,BRSK2; 1 µM,97%
same,remaining activity at 1 µM,CDK9-Cyclin T1; 1 µM,103%
same,remaining activity at 1 µM,MKK1; 1 µM,106%
same,remaining activity at 1 µM,RIPK2; 1 µM,88%
same,remaining activity at 1 µM,ROCK 2; 1 µM,113%
same,remaining activity at 1 µM,TGFBR1; 1 µM,124%
Cc1ccc(F)c(S(=O)(=O)Nc2ccc(-c3nc(OC[C@H]4CN(CCCCCCOCCOCCOCC(=O)N[C@H](C(=O)N5C[C@@H](O)C[C@H]5C(=O)NCc5ccc(-c6scnc6C)cc5)C(C)(C)C)CCO4)c4cn[nH]c4n3)cc2)c1 [cisSGK3-PROTAC1],remaining activity at 1 µM,ABL; 1 µM,112%
same,remaining activity at 1 µM,BRSK1; 1 µM,106%
same,remaining activity at 1 µM,BRSK2; 1 µM,101%
same,remaining activity at 1 µM,CDK9-Cyclin T1; 1 µM,105%
same,remaining activity at 1 µM,MKK1; 1 µM,102%
same,remaining activity at 1 µM,RIPK2; 1 µM,94%
same,remaining activity at 1 µM,ROCK 2; 1 µM,119%
same,remaining activity at 1 µM,TGFBR1; 1 µM,114%
